Values joined by “and” are separate entries in the source; they are usually repeats but may differ in a detail not shown here. Equal values may be shown once.
Assays:
[1] = target: T1, Flt-3 (Homo sapiens, UniProt P36888); assay: Z-Lyte Kinase Assay of Flt-3; assay type: biochemical; details: Flt3 kinase
T1 sequence (P36888 27-993): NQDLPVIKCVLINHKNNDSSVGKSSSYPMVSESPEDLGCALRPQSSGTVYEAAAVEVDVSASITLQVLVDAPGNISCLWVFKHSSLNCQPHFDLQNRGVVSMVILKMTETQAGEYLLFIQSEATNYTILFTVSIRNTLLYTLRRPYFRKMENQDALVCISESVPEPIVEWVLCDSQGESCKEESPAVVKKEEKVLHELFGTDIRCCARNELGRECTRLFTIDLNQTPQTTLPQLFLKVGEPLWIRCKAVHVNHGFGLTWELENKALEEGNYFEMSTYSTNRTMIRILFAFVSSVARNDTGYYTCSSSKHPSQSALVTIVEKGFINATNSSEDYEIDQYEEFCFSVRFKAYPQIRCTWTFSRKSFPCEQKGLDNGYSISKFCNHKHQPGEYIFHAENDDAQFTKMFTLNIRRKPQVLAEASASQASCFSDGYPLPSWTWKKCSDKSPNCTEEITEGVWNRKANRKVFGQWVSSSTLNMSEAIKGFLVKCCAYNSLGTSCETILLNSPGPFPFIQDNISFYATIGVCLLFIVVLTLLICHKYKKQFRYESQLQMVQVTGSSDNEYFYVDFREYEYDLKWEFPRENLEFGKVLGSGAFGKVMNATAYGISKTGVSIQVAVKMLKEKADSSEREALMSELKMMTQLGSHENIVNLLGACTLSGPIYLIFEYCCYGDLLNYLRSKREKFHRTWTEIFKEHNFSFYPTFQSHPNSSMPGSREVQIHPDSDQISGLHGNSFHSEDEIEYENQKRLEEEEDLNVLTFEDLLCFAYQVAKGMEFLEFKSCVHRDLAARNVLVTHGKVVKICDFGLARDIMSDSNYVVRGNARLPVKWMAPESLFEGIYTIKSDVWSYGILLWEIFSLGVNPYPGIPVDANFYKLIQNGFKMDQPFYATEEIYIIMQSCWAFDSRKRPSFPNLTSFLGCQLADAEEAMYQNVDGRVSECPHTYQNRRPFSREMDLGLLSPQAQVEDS
Protocol: Z-Lyte Kinase Assay of Flt-3:
Serially dilute the test compounds to 4 folds of the concentrations desired, keeping the DMSO concentration at 8%. The final concentrations were 3, 1, 0.33, 0.11, 0.037, 0.012, 0.004, 0.0014 μM, and the final concentration of DMSO was 2%.
Prepare Kinase/Peptide Mixture by diluting the kinase to 0.12 μg/mL and the Z-LYTE™ Tyr 2 peptide to 4 μM in 1.33× Kinase Buffer. Mix gently by pipetting.
Prepare ATP Solution by diluting the 10 mM of ATP in 1.33× Kinase Buffer to 1.88 mM.
• a. Add 2.5 μL of 4× test Cpds to each well except C1, C2, C3 wells • Add 2.5 μL of 8% DMSO to C1, C2, C3 wells • b. Put the 384-plate on ice • c. Add 5 μL of P/K mixture to each test Cpd wells and C1, C2 wells • d. Add 5 μL of PP Solution to C3 well • e. Add 2.5 μL of 1.33× kinase buffer to C1 and C3 wells • f. Add 2.5 μL of 4×ATP Solution to each test Cpd wells and C2 well, respectively. • Shake the plate for 30 Sec and centrifuge (1500 rpm, 1 min) • g. Seal the plate to protect from the light and incubate the plate for 1 hour at RT (25-30° C.).
• a. Add 5 μL of the Development solution to all wells • b. Shake the plate for 30 Sec and centrifuge (1500 rpm, 1 min) • c. Seal the plate to protect from the light and incubate the plate for 1 hour at RT (25-30° C.).
• a. […]
IC50 Value: determined with add-in software for Microsoft Excel, XLfit™ (version 2.0) from ID Business Solutions (Guildford, UK)

[2] = target: Syk kinase (Homo sapiens, UniProt P43405); assay: SYK Enzymatic Assay (Z-LYTE Tyr 2 peptide); assay type: biochemical; details: 8 concentrations 1 μM down to 0.0003 μM
Outline: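 Z-LYTE format using Tyr 2 peptide. After the 1 h room-temperature kinase reaction, development reagent was added for 1 h, then stop reagent. Fluorescence was read at 445 and 520 nm. Compounds were tested at 8 concentrations, 1 μM down to 0.0003 μM (1:3 dilutions).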

[3] = tested on: RBL-2H3 cells; assay: IgE-induced Beta-hexosaminidase secretion in RBL-2H3 cells; assay type: cell-based; details: Rattus norvegicus, RBL-2H3, IgE-induced Beta-hexosaminidase secretion, DNP-BSA stimulation
Outline: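 RBL-2H3 cells sensitized overnight with 0.5 ug/ml SPE-7 IgE, washed, preincubated with compound 20 min at 37° C, then stimulated with DNP-BSA (150 ng/mL stock) for 45 min. Released β-hexosaminidase measured on supernatant with 1 mM 4-nitrophenyl N-acetyl-β-D-glucosaminide, pH 4.5, 1.5 hr at 37° C; absorbance 405 nm after carbonate quench.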

| SMILES | IC50 [1] [nM] | IC50 [2] | IC50 [3] [nM] |
| --- | --- | --- | --- |
| CC(=O)N1CCO[C@H](COc2nc(-c3ccc4c(c3)CCOC4(C)C)cc3nccnc23)C1 [Compound 300] | 885 | 30 nM | 52 |
| CC(C)(O)c1ccc(-c2cc3nccnc3c(OC[C@@H]3CN(S(C)(=O)=O)CCO3)n2)cc1 [Compound 219] | 880 | 32 nM and 28 nM | 37 |

From patent US20170152258A9, “Substituted Pyridopyrazines as Syk Inhibitors” (HUTCHISON MEDIPHARMA LIMITED, priority 2012, published 2017)
